These results are taken from paper PMC5218480 (PLoS ONE, 2017).

In the assay the test system is MV-4-11 cells. As to the kind of experiment: Gene expression microarray analysis (Affymetrix PrimeView) and GSEA. The format is cell-based, human. Further details: RFU PODN (11730768_x_at) / Fold change /veh PODN (11730768_x_at) / RFU LINC00158 (11744669_a_at) / Fold change /veh LINC00158 (11744669_a_at) / RFU DUSP10 (11751237_a_at) / Fold change /veh DUSP10 (11751237_a_at) / RFU ID3 (11757404_x_at) / Fold change /veh ID3 (11757404_x_at) / RFU PLEKHG5 (11737974_s_at) / Fold change /veh PLEKHG5 (11737974_s_at) / RFU LRRC4B (11730491_at) / Fold change /veh LRRC4B (11730491_at) / RFU GIMAP4 (11747438_a_at) / Fold change /veh GIMAP4 (11747438_a_at) / RFU KRT8 (11758183_x_at) / Fold change /veh KRT8 (11758183_x_at) / RFU CNN1 (11734310_a_at) / Fold change /veh CNN1 (11734310_a_at) / RFU VPS37D (11726825_at) / Fold change /veh VPS37D (11726825_at) / RFU C10orf10 (11716522_x_at) / Fold change /veh C10orf10 (11716522_x_at) / RFU KIR2DL2 /// KIR2DL4 /// KIR2DL5A /// KIR2DL5B /// KIR2DS1 /// KIR2DS2 /// KIR2DS3 /// KIR2DS4 /// KIR3DL3 /// KIR3DL3 /// KIR3DS1 (11738374_at) / Fold change /veh KIR2DL2 /// KIR2DL4 /// KIR2DL5A /// KIR2DL5B /// KIR2DS1 /// KIR2DS2 /// KIR2DS3 /// KIR2DS4 /// KIR3DL3 /// KIR3DL3 /// KIR3DS1 (11738374_at) / RFU C1QL1 (11718748_at) / Fold change /veh C1QL1 (11718748_at) / RFU TMPRSS4 (11747572_a_at) / Fold change /veh TMPRSS4 (11747572_a_at) / RFU HAMP (11756126_x_at) / Fold change /veh HAMP (11756126_x_at) / RFU RNFT2 (11725882_a_at) / Fold change /veh RNFT2 (11725882_a_at) / RFU NR4A2 (11747474_a_at) / Fold change /veh NR4A2 (11747474_a_at) / RFU ABCC12 (11746883_a_at) / Fold change /veh ABCC12 (11746883_a_at) / RFU TMEM136 (11760407_x_at) / Fold change /veh TMEM136 (11760407_x_at) / RFU CLDN22 /// WWC2 (11732394_at) / Fold change /veh CLDN22 /// WWC2 (11732394_at) / RFU HLA-DPB1 (11760878_x_at) / Fold change /veh HLA-DPB1 (11760878_x_at) / RFU SPINT1 (11716480_a_at) / Fold change /veh SPINT1 (11716480_a_at) / RFU GAP43 (11754022_s_at) / Fold change /veh GAP43 (11754022_s_at) / RFU A4GNT (11735810_at) / Fold change /veh A4GNT (11735810_at) / RFU PRB3 (11715151_x_at) / Fold change /veh PRB3 (11715151_x_at) / RFU TUBB4B (11761932_at) / Fold change /veh TUBB4B (11761932_at) / RFU CAPN14 (11732068_a_at) / Fold change /veh CAPN14 (11732068_a_at) / RFU TMCC2 (11721928_a_at) / Fold change /veh TMCC2 (11721928_a_at) / RFU IRGQ (11745062_a_at) / Fold change /veh IRGQ (11745062_a_at) / RFU FAM174B (11720279_a_at) / Fold change /veh FAM174B (11720279_a_at) / RFU TMPRSS4 (11748680_a_at) / Fold change /veh TMPRSS4 (11748680_a_at) / RFU FAM212B (11763350_a_at) / Fold change /veh FAM212B (11763350_a_at) / RFU PLEKHG5 (11743358_a_at) / Fold change /veh PLEKHG5 (11743358_a_at) / RFU ZSCAN30 (11745921_a_at) / Fold change /veh ZSCAN30 (11745921_a_at) / RFU CMKLR1 (11741424_a_at) / Fold change /veh CMKLR1 (11741424_a_at) / RFU LOC101060620 /// MAPK8IP1 (11723275_at) / Fold change /veh LOC101060620 /// MAPK8IP1 (11723275_at) / RFU SPTSSB (11747773_x_at) / Fold change /veh SPTSSB (11747773_x_at) / RFU PRSS12 (11739890_at) / Fold change /veh PRSS12 (11739890_at) / RFU BIN1 (11741810_x_at) / Fold change /veh BIN1 (11741810_x_at) / RFU WNT11 (11732464_a_at) / Fold change /veh WNT11 (11732464_a_at) / RFU C10orf10 (11716521_a_at) / Fold change /veh C10orf10 (11716521_a_at) / RFU C5orf56 (11738089_at) / Fold change /veh C5orf56 (11738089_at) / RFU CYB561 (11721691_x_at) / Fold change /veh CYB561 (11721691_x_at) / RFU ANKRD19P (11752326_a_at) / Fold change /veh ANKRD19P (11752326_a_at) / RFU OR2T12 /// OR2T33 /// OR2T8 (11738714_s_at) / Fold change /veh OR2T12 /// OR2T33 /// OR2T8 (11738714_s_at) / RFU VCAN (11748164_a_at) / Fold change /veh VCAN (11748164_a_at) / RFU JSRP1 (11732532_at) / Fold change /veh JSRP1 (11732532_at) / RFU KRTAP10-11 (11738290_x_at) / Fold change /veh KRTAP10-11 (11738290_x_at) / RFU MYO3A (11730013_a_at) / Fold change /veh MYO3A (11730013_a_at) / RFU EBF3 (11725865_a_at) / Fold change /veh EBF3 (11725865_a_at) / RFU CAMK2N1 (11719241_x_at) / Fold change /veh CAMK2N1 (11719241_x_at) / RFU C5orf56 (11738088_a_at) / Fold change /veh C5orf56 (11738088_a_at) / RFU OLFML3 (11715873_a_at) / Fold change /veh OLFML3 (11715873_a_at) / RFU LOC100653217 /// NTM (11731650_a_at) / Fold change /veh LOC100653217 /// NTM (11731650_a_at) / RFU MAPK11 (11762145_a_at) / Fold change /veh MAPK11 (11762145_a_at) / RFU FIZ1 (11724087_x_at) / Fold change /veh FIZ1 (11724087_x_at) / RFU OASL (11726364_x_at) / Fold change /veh OASL (11726364_x_at) / RFU SOX15 (11748057_x_at) / Fold change /veh SOX15 (11748057_x_at) / RFU CD79A (11719716_a_at) / Fold change /veh CD79A (11719716_a_at) / RFU HIST1H1D (11736915_at) / Fold change /veh HIST1H1D (11736915_at) / RFU CASKIN2 (11723855_a_at) / Fold change /veh CASKIN2 (11723855_a_at) / RFU LOC730098 (11760151_x_at) / Fold change /veh LOC730098 (11760151_x_at) / RFU OR4N2 (11742367_at) / Fold change /veh OR4N2 (11742367_at) / RFU PRRT2 (11749266_a_at) / Fold change /veh PRRT2 (11749266_a_at) / RFU SNX32 (11753110_a_at) / Fold change /veh SNX32 (11753110_a_at) / RFU CDHR5 (11726645_a_at) / Fold change /veh CDHR5 (11726645_a_at) / RFU RCAN1 (11760418_a_at) / Fold change /veh RCAN1 (11760418_a_at) / RFU FAM167A (11723789_a_at) / Fold change /veh FAM167A (11723789_a_at) / RFU FAM26E (11764081_at) / Fold change /veh FAM26E (11764081_at) / RFU ISYNA1 (11749810_s_at) / Fold change /veh ISYNA1 (11749810_s_at) / RFU ACY1 (11761880_at) / Fold change /veh ACY1 (11761880_at) / RFU 11764098_at / Fold change /veh 11764098_at / RFU SAMD14 (11745864_x_at) / Fold change /veh SAMD14 (11745864_x_at) / RFU NPB (11741838_a_at) / Fold change /veh NPB (11741838_a_at) / RFU TMPRSS6 (11731388_a_at) / Fold change /veh TMPRSS6 (11731388_a_at) / RFU KRTAP10-2 (11738614_at) / Fold change /veh KRTAP10-2 (11738614_at) / RFU ARHGAP8 /// PRR5-ARHGAP8 (11727945_x_at) / Fold change /veh ARHGAP8 /// PRR5-ARHGAP8 (11727945_x_at) / RFU KRTAP5-7 /// NADSYN1 (11734609_at) / Fold change /veh KRTAP5-7 /// NADSYN1 (11734609_at) / RFU RASL12 (11751679_a_at) / Fold change /veh RASL12 (11751679_a_at) / RFU CDKN2B (11736163_a_at) / Fold change /veh CDKN2B (11736163_a_at) / RFU PRF1 (11729649_at) / Fold change /veh PRF1 (11729649_at) / RFU, ZNF638 /// ZNF638-IT1 / Fold change vs veh, ZNF638 /// ZNF638-IT1 / RFU, PANK3 / Fold change vs veh, PANK3 / RFU, SH3YL1 / Fold change vs veh, SH3YL1 / RFU, ZEB2 / Fold change vs veh, ZEB2 / RFU, NRIP1 / Fold change vs veh, NRIP1 / RFU, PTTG1IP / Fold change vs veh, PTTG1IP / RFU, CAPN2 / Fold change vs veh, CAPN2 / RFU, MED14 / Fold change vs veh, MED14 / RFU, SNORA58 / Fold change vs veh, SNORA58 / RFU, C1orf63 / Fold change vs veh, C1orf63 / RFU, LRRFIP1 / Fold change vs veh, LRRFIP1 / RFU, NDUFAF7 / Fold change vs veh, NDUFAF7 / RFU, SLC12A2 / Fold change vs veh, SLC12A2 / RFU, IBTK / Fold change vs veh, IBTK / RFU, ESF1 / Fold change vs veh, ESF1 / Fold change vs veh, TMEM50B / RFU, TAOK1 / Fold change vs veh, TAOK1 / RFU, ACBD3 / Fold change vs veh, ACBD3 / RFU, TMA16 / Fold change vs veh, TMA16 / RFU, RWDD3 / Fold change vs veh, RWDD3 / RFU, BCAT1 / Fold change vs veh, BCAT1 / RFU, EDEM3 / Fold change vs veh, EDEM3 / RFU, TMEM33 / Fold change vs veh, TMEM33 / RFU, WDR75 / Fold change vs veh, WDR75 / RFU, AHCTF1 / Fold change vs veh, AHCTF1 / RFU, TFRC / Fold change vs veh, TFRC / RFU, ZDHHC17 / Fold change vs veh, ZDHHC17 / RFU, NOM1 / Fold change vs veh, NOM1 / RFU, ARL8B / Fold change vs veh, ARL8B / RFU, ZBTB11 / Fold change vs veh, ZBTB11 / RFU, TAMM41 / Fold change vs veh, TAMM41 / RFU, KIAA1704 /// LOC100996395 / Fold change vs veh, KIAA1704 /// LOC100996395 / RFU, ING1 / Fold change vs veh, ING1 / RFU, TRMT61B / Fold change vs veh, TRMT61B / RFU, FUBP3 / Fold change vs veh, FUBP3 / RFU, TP53 / Fold change vs veh, TP53 / RFU, TNKS2 / Fold change vs veh, TNKS2 / RFU, ZFP14 / Fold change vs veh, ZFP14 / RFU, ACTR2 / Fold change vs veh, ACTR2 / RFU, PPP3R1 / Fold change vs veh, PPP3R1 / RFU, PIK3R1 / Fold change vs veh, PIK3R1 / RFU, HNRNPA1 / Fold change vs veh, HNRNPA1 / RFU, RNF170 / Fold change vs veh, RNF170 / RFU, ZNF28 / Fold change vs veh, ZNF28 / RFU, RNGTT / Fold change vs veh, RNGTT / RFU, OGT / Fold change vs veh, OGT / RFU, BRD1 / Fold change vs veh, BRD1 / RFU, MARS / Fold change vs veh, MARS / RFU, ZNF655 / Fold change vs veh, ZNF655 / RFU, FAHD1 / Fold change vs veh, FAHD1 / RFU, BDP1 / Fold change vs veh, BDP1 / RFU, LRRCC1 / Fold change vs veh, LRRCC1 / RFU, ARID1A / Fold change vs veh, ARID1A / RFU, ZNF146 / Fold change vs veh, ZNF146 / RFU, ZNF330 / Fold change vs veh, ZNF330 / RFU, GPN3 / Fold change vs veh, GPN3 / RFU, C9orf123 / Fold change vs veh, C9orf123 / RFU, N4BP2L2 / Fold change vs veh, N4BP2L2 / RFU, ARFIP1 / Fold change vs veh, ARFIP1 / RFU, FAM179B / Fold change vs veh, FAM179B / RFU, BCL10 / Fold change vs veh, BCL10 / RFU, UHRF1BP1L / Fold change vs veh, UHRF1BP1L / RFU, BET1 / Fold change vs veh, BET1 / RFU, CNOT2 / Fold change vs veh, CNOT2 / RFU, ZNF268 / Fold change vs veh, ZNF268 / Fold change vs veh, ZNF507 / RFU, DGCR2 / Fold change vs veh, DGCR2 / RFU, WDSUB1 / Fold change vs veh, WDSUB1 / Fold change vs veh, HSP90B1 /// MIR3652 / RFU, ADSS / Fold change vs veh, ADSS / RFU, GK / Fold change vs veh, GK / RFU, ZNF148 / Fold change vs veh, ZNF148 / RFU, TAF9 / Fold change vs veh, TAF9 / RFU, SLC1A5 / Fold change vs veh, SLC1A5 / RFU, SLMO2 / Fold change vs veh, SLMO2 / RFU, ABCC4 / Fold change vs veh, ABCC4 / RFU, LOC101060439 /// RAP1B / Fold change vs veh, LOC101060439 /// RAP1B / RFU, RFX7 / Fold change vs veh, RFX7 / RFU, GTPBP10 / Fold change vs veh, GTPBP10 / RFU, CNEP1R1 / Fold change vs veh, CNEP1R1 / RFU, BIVM-ERCC5 /// ERCC5 / Fold change vs veh, BIVM-ERCC5 /// ERCC5 / RFU, ILF3 / Fold change vs veh, ILF3 / RFU 11762660_at / Fold change /veh 11762660_at / RFU VCAN (11757783_s_at) / Fold change /veh VCAN (11757783_s_at) / RFU DDX43 (11728927_at) / Fold change /veh DDX43 (11728927_at) / RFU KRT8 (11758188_x_at) / Fold change /veh KRT8 (11758188_x_at) / RFU NKD1 (11759106_at) / Fold change /veh NKD1 (11759106_at) / RFU SRD5A1 (11742802_a_at) / Fold change /veh SRD5A1 (11742802_a_at) / RFU TPSAB1 /// TPSB2 (11721975_s_at) / Fold change /veh TPSAB1 /// TPSB2 (11721975_s_at) / RFU GSTM3 (11746129_a_at) / Fold change /veh GSTM3 (11746129_a_at) / RFU IL23R (11737362_x_at) / Fold change /veh IL23R (11737362_x_at) / RFU TMEM51 (11727254_a_at) / Fold change /veh TMEM51 (11727254_a_at) / RFU PIWIL2 (11732686_x_at) / Fold change /veh PIWIL2 (11732686_x_at) / RFU ORM1 (11744905_x_at) / Fold change /veh ORM1 (11744905_x_at) / RFU CCDC152 (11743942_at) / Fold change /veh CCDC152 (11743942_at) / RFU ECM1 (11717891_a_at) / Fold change /veh ECM1 (11717891_a_at) / RFU IL23R (11748794_a_at) / Fold change /veh IL23R (11748794_a_at) / RFU TNFAIP8L3 (11732012_x_at) / Fold change /veh TNFAIP8L3 (11732012_x_at) / RFU MBOAT4 (11741988_at) / Fold change /veh MBOAT4 (11741988_at) / RFU 11764193_at / Fold change /veh 11764193_at / RFU TMEM53 (11763286_at) / Fold change /veh TMEM53 (11763286_at) / RFU MAGEB2 (11727129_at) / Fold change /veh MAGEB2 (11727129_at) / RFU TMEM200A (11744735_a_at) / Fold change /veh TMEM200A (11744735_a_at) / RFU CCDC152 (11751479_a_at) / Fold change /veh CCDC152 (11751479_a_at) / RFU FAM211A (11726209_a_at) / Fold change /veh FAM211A (11726209_a_at) / RFU RGS16 (11746705_a_at) / Fold change /veh RGS16 (11746705_a_at) / RFU VCAN (11755009_s_at) / Fold change /veh VCAN (11755009_s_at) / RFU RHOB (11743442_s_at) / Fold change /veh RHOB (11743442_s_at) / RFU RGS16 (11720943_a_at) / Fold change /veh RGS16 (11720943_a_at) / RFU RGS16 (11720944_at) / Fold change /veh RGS16 (11720944_at) / RFU, VPS4B / Fold change vs veh, VPS4B / RFU, CREB1 / Fold change vs veh, CREB1 / RFU, DNAJC13 / Fold change vs veh, DNAJC13 / RFU, GNAQ / Fold change vs veh, GNAQ / RFU, CDK5R1 / Fold change vs veh, CDK5R1 / RFU, ZRANB3 / Fold change vs veh, ZRANB3 / RFU, CUL4A / Fold change vs veh, CUL4A / RFU, CCNY / Fold change vs veh, CCNY / RFU, UFL1 / Fold change vs veh, UFL1 / RFU, COG3 / Fold change vs veh, COG3 / RFU, DIAPH2 / Fold change vs veh, DIAPH2 / RFU, SKA2 / Fold change vs veh, SKA2 / RFU, AFF3 / Fold change vs veh, AFF3 / RFU, LMF1 / Fold change vs veh, LMF1 / RFU, IPO11 / Fold change vs veh, IPO11 / RFU, DFFB / Fold change vs veh, DFFB / RFU, FOXP1 / Fold change vs veh, FOXP1 / RFU, CARD8 / Fold change vs veh, CARD8 / RFU, STRN3 / Fold change vs veh, STRN3 / RFU, ADK / Fold change vs veh, ADK / RFU, RASSF2 / Fold change vs veh, RASSF2 / RFU, WIPF1 / Fold change vs veh, WIPF1 / RFU, LARP1B / Fold change vs veh, LARP1B / RFU, RASA1 / Fold change vs veh, RASA1 / RFU, RB1 / Fold change vs veh, RB1 / RFU, PPFIA1 / Fold change vs veh, PPFIA1 / RFU, MAT2A / Fold change vs veh, MAT2A / RFU, CCT5 / Fold change vs veh, CCT5 / RFU, WDR92 / Fold change vs veh, WDR92 / RFU, CUX1 / Fold change vs veh, CUX1 / RFU, TTC7A / Fold change vs veh, TTC7A / RFU, TMEM135 / Fold change vs veh, TMEM135 / RFU, DEPTOR / Fold change vs veh, DEPTOR / RFU, CPM / Fold change vs veh, CPM / RFU, DNAJB6 / Fold change vs veh, DNAJB6 / RFU, CACNA2D3 / Fold change vs veh, CACNA2D3 / RFU, DTX4 / Fold change vs veh, DTX4 / RFU, TFCP2 / Fold change vs veh, TFCP2 / RFU, GMCL1 /// GMCL1P1 / Fold change vs veh, GMCL1 /// GMCL1P1 / RFU, AEBP2 / Fold change vs veh, AEBP2 / RFU, SNHG1 /// SNORD22 /// SNORD25 /// SNORD26 /// SNORD27 /// SNORD28 /// SNORD29 /// SNORD31 / Fold change vs veh, SNHG1 /// SNORD22 /// SNORD25 /// SNORD26 /// SNORD27 /// SNORD28 /// SNORD29 /// SNORD31 / Fold change (Aza/veh), C12orf56 (ProbeSet 11735607_a_at) / Fold change (ACY-1035/veh), C12orf56 (ProbeSet 11735607_a_at) / Fold change (Aza/veh), FGFR1OP (ProbeSet 11751329_s_at) / Fold change (ACY-1035/veh), FGFR1OP (ProbeSet 11751329_s_at) / Fold change (Aza/veh), VPS36 (ProbeSet 11739960_a_at) / Fold change (ACY-1035/veh), VPS36 (ProbeSet 11739960_a_at) / RFU SYPL1 (11715823_x_at) / Fold change /veh SYPL1 (11715823_x_at) / RFU IGFBP7 (11715501_s_at) / Fold change /veh IGFBP7 (11715501_s_at) / RFU REEP3 (11722064_at) / Fold change /veh REEP3 (11722064_at) / RFU IGLL1 (11728026_x_at) / Fold change /veh IGLL1 (11728026_x_at): dose or concentration left out as unconfirmed. Conditions: ProbeSet 11731610_x_at; LIST B.

SMILES strings stand for the structures.

As for `Nc1ncn([C@@H]2O[C@H](CO)[C@@H](O)[C@H]2O)c(=O)n1` [azacitidine], the “Fold change vs veh, KIAA1704 /// LOC100996395” value is given as 1.05.
